In PubChem BioAssay (NCI):
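These data come from cells grown in 96-well plates and exposed to compound for 48 hours at five concentrations. Abbreviation: GI50, concentration required for 50% inhibition of growth. TGI marks complete inhibition of growth.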

Columns and labels:
Assay in all cases: DTP human tumour cell line panel, 48 h
NCI-H23 lung = test system: NCI-H23 lung
MALME-3M melanoma = test system: MALME-3M melanoma
T-47D breast = test system: T-47D breast
DU-145 prostate = test system: DU-145 prostate
COLO 205 colon = test system: COLO 205 colon
786-0 renal = test system: 786-0 renal
NCI-H522 lung = test system: NCI-H522 lung
SF-295 CNS = test system: SF-295 CNS
UACC-62 melanoma = test system: UACC-62 melanoma
OVCAR-5 ovarian = test system: OVCAR-5 ovarian
MDA-MB-435 = test system: MDA-MB-435
M14 melanoma = test system: M14 melanoma
SNB-75 CNS = test system: SNB-75 CNS
NCI-H226 lung = test system: NCI-H226 lung
UACC-257 melanoma = test system: UACC-257 melanoma
TK-10 renal = test system: TK-10 renal
HOP-92 NSCLC = test system: HOP-92 NSCLC
HL-60(TB) leukemia = test system: HL-60(TB) leukemia
SF-268 CNS = test system: SF-268 CNS
SK-MEL-28 melanoma = test system: SK-MEL-28 melanoma
OVCAR-3 ovarian = test system: OVCAR-3 ovarian
HCT-116 colon = test system: HCT-116 colon
OVCAR-4 ovarian = test system: OVCAR-4 ovarian
A549 NSCLC = test system: A549 NSCLC
SR leukemia = test system: SR leukemia
PC-3 prostate = test system: PC-3 prostate
KM12 colon = test system: KM12 colon
RXF 393 renal = test system: RXF 393 renal
U251 CNS = test system: U251 CNS
ACHN renal = test system: ACHN renal
IGROV1 ovarian = test system: IGROV1 ovarian
CAKI-1 renal = test system: CAKI-1 renal
K-562 leukemia = test system: K-562 leukemia
HS 578T breast = test system: HS 578T breast
HT29 colon = test system: HT29 colon
SK-OV-3 ovarian = test system: SK-OV-3 ovarian
HOP-62 NSCLC = test system: HOP-62 NSCLC
RPMI-8226 leukemia = test system: RPMI-8226 leukemia
MOLT-4 leukemia = test system: MOLT-4 leukemia
UO-31 renal = test system: UO-31 renal
NCI/ADR-RES ovarian = test system: NCI/ADR-RES ovarian
MCF7 breast = test system: MCF7 breast
LOX IMVI melanoma = test system: LOX IMVI melanoma
SK-MEL-2 melanoma = test system: SK-MEL-2 melanoma
SW-620 colon = test system: SW-620 colon
OVCAR-8 ovarian = test system: OVCAR-8 ovarian
HCC-2998 colon = test system: HCC-2998 colon
SF-539 CNS = test system: SF-539 CNS
BT-549 breast = test system: BT-549 breast
NCI-H460 lung = test system: NCI-H460 lung
CCRF-CEM leukemia = test system: CCRF-CEM leukemia
SK-MEL-5 melanoma = test system: SK-MEL-5 melanoma
SN12C renal = test system: SN12C renal
A498 renal = test system: A498 renal
SNB-19 CNS = test system: SNB-19 CNS
MDA-MB-231 breast = test system: MDA-MB-231 breast
HCT-15 colon = test system: HCT-15 colon
EKVX NSCLC = test system: EKVX NSCLC

`Cc1cc2nc(CS)[nH]c2cc1C` showed a GI50 (NCI-H23 lung) of 28.8 µM, a TGI (NCI-H23 lung) greater than 100 µM and a GI50 (MALME-3M melanoma) of 13.4 µM. For the same compound, the TGI (MALME-3M melanoma) was 32 µM, the GI50 (T-47D breast) was 15.6 µM and the TGI (T-47D breast) was 37.5 µM. The GI50 (DU-145 prostate) was 20.8 µM, the TGI (DU-145 prostate) was 48.5 µM and the GI50 (COLO 205 colon) was 23.6 µM. The TGI (COLO 205 colon) was 98.5 µM, the GI50 (786-0 renal) was 17.7 µM and the TGI (786-0 renal) was 34.3 µM. The GI50 (NCI-H522 lung) was 3.48 µM, the TGI (NCI-H522 lung) was 19.4 µM and the GI50 (SF-295 CNS) was 5.35 µM. The TGI (SF-295 CNS) was 25 µM, the GI50 (UACC-62 melanoma) was 13.6 µM and the TGI (UACC-62 melanoma) was 28.2 µM. The GI50 (OVCAR-5 ovarian) was 21.4 µM, the TGI (OVCAR-5 ovarian) was 43.5 µM and the GI50 (MDA-MB-435) was 14.4 µM. For the same compound, the TGI (MDA-MB-435) was 28.7 µM, the GI50 (M14 melanoma) was 15.3 µM and the TGI (M14 melanoma) was 36.8 µM. For the same compound, the GI50 (SNB-75 CNS) was 14.9 µM, the TGI (SNB-75 CNS) was 33.9 µM and the GI50 (NCI-H226 lung) was 14 µM. It also gave a TGI (NCI-H226 lung) of 28.7 µM, a GI50 (UACC-257 melanoma) of 20.9 µM and a TGI (UACC-257 melanoma) of 54 µM. The GI50 (TK-10 renal) was 15 µM, the TGI (TK-10 renal) was 29.7 µM and the GI50 (HOP-92 NSCLC) was 18.8 µM. For the same compound, the TGI (HOP-92 NSCLC) was 76.3 µM, the GI50 (HL-60(TB) leukemia) was 12.4 µM and the TGI (HL-60(TB) leukemia) was greater than 100 µM. It also gave a GI50 (SF-268 CNS) of 20.5 µM, a TGI (SF-268 CNS) of 57.5 µM and a GI50 (SK-MEL-28 melanoma) of 15.5 µM. The TGI (SK-MEL-28 melanoma) was 32.2 µM, the GI50 (OVCAR-3 ovarian) was 14.4 µM and the TGI (OVCAR-3 ovarian) was 27.9 µM. The GI50 (HCT-116 colon) was 14.9 µM, the TGI (HCT-116 colon) was 29.4 µM and the GI50 (OVCAR-4 ovarian) was 13.1 µM. For the same compound, the TGI (OVCAR-4 ovarian) was 32 µM, the GI50 (A549 NSCLC) was 36.8 µM and the TGI (A549 NSCLC) was greater than 100 µM. It also gave a GI50 (SR leukemia) of 6.69 µM, a TGI (SR leukemia) of 37.6 µM and a GI50 (PC-3 prostate) of 16.1 µM. For the same compound, the TGI (PC-3 prostate) was 46.4 µM, the GI50 (KM12 colon) was 15.8 µM and the TGI (KM12 colon) was 32.2 µM. For the same compound, the GI50 (RXF 393 renal) was 17.5 µM, the TGI (RXF 393 renal) was 31.6 µM and the GI50 (U251 CNS) was 14 µM. The TGI (U251 CNS) was 30 µM, the GI50 (ACHN renal) was 15.4 µM and the TGI (ACHN renal) was 30.6 µM. It also gave a GI50 (IGROV1 ovarian) of 16.7 µM, a TGI (IGROV1 ovarian) of 34.1 µM and a GI50 (CAKI-1 renal) of 16.9 µM. The TGI (CAKI-1 renal) was 35.9 µM, the GI50 (K-562 leukemia) was 22.4 µM and the TGI (K-562 leukemia) was 67.3 µM. For the same compound, the GI50 (HS 578T breast) was 23.3 µM, the TGI (HS 578T breast) was 85.5 µM and the GI50 (HT29 colon) was 6.39 µM. The TGI (HT29 colon) was 22.7 µM, the GI50 (SK-OV-3 ovarian) was 37.5 µM and the TGI (SK-OV-3 ovarian) was greater than 100 µM. For the same compound, the GI50 (HOP-62 NSCLC) was 15.2 µM, the TGI (HOP-62 NSCLC) was 30.7 µM and the GI50 (RPMI-8226 leukemia) was 14.3 µM. It also gave a TGI (RPMI-8226 leukemia) of 40.7 µM, a GI50 (MOLT-4 leukemia) of 2.85 µM and a TGI (MOLT-4 leukemia) of 8.53 µM. It also gave a GI50 (UO-31 renal) of 14.2 µM, a TGI (UO-31 renal) of 28.1 µM and a GI50 (NCI/ADR-RES ovarian) of 22.8 µM. For the same compound, the TGI (NCI/ADR-RES ovarian) was 95.4 µM, the GI50 (MCF7 breast) was 14.7 µM and the TGI (MCF7 breast) was 31.2 µM. The GI50 (LOX IMVI melanoma) was 12.7 µM, the TGI (LOX IMVI melanoma) was 30.6 µM and the GI50 (SK-MEL-2 melanoma) was 15.7 µM. It also gave a TGI (SK-MEL-2 melanoma) of 34.7 µM, a GI50 (SW-620 colon) of 13 µM and a TGI (SW-620 colon) of 30.9 µM. It also gave a GI50 (OVCAR-8 ovarian) of 20.2 µM, a TGI (OVCAR-8 ovarian) of 50.6 µM and a GI50 (HCC-2998 colon) of 22.9 µM. The TGI (HCC-2998 colon) was 66.2 µM, the GI50 (SF-539 CNS) was 20.5 µM and the TGI (SF-539 CNS) was 45 µM. It also gave a GI50 (BT-549 breast) of 24.5 µM, a TGI (BT-549 breast) of 66.5 µM and a GI50 (NCI-H460 lung) of 18.7 µM. The TGI (NCI-H460 lung) was 54.6 µM, the GI50 (CCRF-CEM leukemia) was 5.44 µM and the TGI (CCRF-CEM leukemia) was 75.1 µM. For the same compound, the GI50 (SK-MEL-5 melanoma) was 13.7 µM, the TGI (SK-MEL-5 melanoma) was 27.2 µM and the GI50 (SN12C renal) was 25.1 µM. It also gave a TGI (SN12C renal) of 71.3 µM, a GI50 (A498 renal) of 18.9 µM and a TGI (A498 renal) greater than 100 µM. It also gave a GI50 (SNB-19 CNS) of 27.6 µM, a TGI (SNB-19 CNS) greater than 100 µM and a GI50 (MDA-MB-231 breast) of 20.2 µM. It also gave a TGI (MDA-MB-231 breast) of 50 µM, a GI50 (HCT-15 colon) of 18.6 µM and a TGI (HCT-15 colon) of 43.7 µM. It also gave a GI50 (EKVX NSCLC) of 25.1 µM and a TGI (EKVX NSCLC) greater than 100 µM.
